The record followed here is ChEMBL document CHEMBL3988442, “University of Dundee, Small-Polar-MMV Screening Library” (2021).

The nature of experiment [1]: microbe, parasite or virus in culture. Conditions: Mycobacterium tuberculosis, 72 h, read-out: pIC50 (converted).
Experiment [2] can be described thus: microbe, parasite or virus in culture. The following applies: Mycobacterium tuberculosis, 96 h, read-out: pIC50 (converted).

Regarding `CCCN(CCC(=O)NC(=O)NC)CC1CCCCO1` (centres undefined), the IC50 is 93.8 µM in experiment [1] and 240 µM in experiment [2].

As for `CCC(C)(C)NC(=O)CNc1ccc2c(c1)OCCO2`, the figures for the IC50 in experiment [1] and in experiment [2] were 95.2 µM and 75.9 µM, respectively.

Regarding `N[C@@H]1CC[C@H](C(=O)NCCOCc2ccccc2)C1`, the figures for the IC50 in experiment [1] and in experiment [2] were 226 µM and 267 µM, respectively.

`CS(=O)(=O)N1CCC(NCCSc2cnn[nH]2)CC1`: the IC50 in experiment [1] and in experiment [2] was greater than 501 µM throughout.

Turning to `CCCc1nn(Cc2ccc(Br)s2)c(=O)o1`, the IC50 in experiment [1] is 31.8 µM; in experiment [2], 25.4 µM.

Take `CN(C)C(=O)c1cc(-c2cccs2)on1`: the IC50 is greater than 501 µM in experiment [1] and 254 µM in experiment [2].

`O=C(CC1C=CCC1)N1CCN(Cc2ccco2)CC1` (centres undefined): the IC50 in experiment [1] was 184 µM; in experiment [2], 228 µM.

With `COc1cc(NC(=O)NCc2nncn2C)ccc1Br`, the IC50 in experiment [1] is 218 µM; in experiment [2] it was greater than 501 µM.

`CC(Nc1cccc(OC(F)(F)F)c1)C(=O)NC(N)=O` (centres undefined): the IC50 in experiment [1] was 184 µM; in experiment [2], greater than 501 µM.

As for `Cc1nn(C2CCCC2)c2nc(C(C)(C)CN3CCN(C)CC3)[nH]c12`, the IC50 in experiment [1] and in experiment [2] was greater than 50.1 µM in each case.

For the compound `CC(Cn1cccn1)NCc1csc(-c2ccc3c(c2)OCO3)n1` (centres undefined), the figures for the IC50 in experiment [1] and in experiment [2] were 1.35 µM and greater than 50.1 µM, respectively.

With `O=c1c2ccccc2nc2n1C(CSc1ccc(F)cc1)CN2` (centres undefined), the IC50 in experiment [1] and in experiment [2] was greater than 50.1 µM in each case.

Turning to `CN(Cc1ccccc1)CC1(O)CCCN(CCC2CCCCC2)C1=O` (centres undefined), the IC50 in experiment [1] and in experiment [2] was greater than 50.1 µM throughout.

Take `CC(C)c1cc(N(C)Cc2noc(C3CCCC3)n2)n2nccc2n1`: the figures for the IC50 in experiment [1] and in experiment [2] were 9.63 µM and 15.5 µM, respectively.

Consider `CNC(=O)NCCc1csc2ccccc12`, for which the IC50 in experiment [1] and in experiment [2] was greater than 50.1 µM in each case.

Take `NCCN1CCN(c2cccc(C(F)(F)F)c2)CC1`: the IC50 in experiment [1] is 356 µM; in experiment [2], 260 µM.

As to `CC(O)CNCCNCc1ccc(-c2ccccc2)o1` (centres undefined), the IC50 in experiment [1] is 275 µM; in experiment [2], 113 µM.

As for `Cc1csc(CCN)n1`, the IC50 in experiment [1] and in experiment [2] was greater than 501 µM throughout.

On to `Cc1cccc(C)c1NC(=O)CC(CN1CCN(C)CC1)C(=O)O` (centres undefined), for which the IC50 in experiment [1] was 32.8 µM; in experiment [2], greater than 50.1 µM.

On to `CCc1nc(C2CCCN(C(=O)c3ccccc3Cl)C2)no1` (centres undefined), for which the IC50 in experiment [1] was 23.9 µM; in experiment [2], greater than 50.1 µM.

On to `CN1CCN(C(=O)c2cc3ccccc3o2)CC1`, for which the IC50 in experiment [1] was 207 µM; in experiment [2] it was 203 µM.

`c1ccc2[nH]c(NCC3CCCO3)nc2c1` (centres undefined): the IC50 in experiment [1] was greater than 501 µM; in experiment [2], 166 µM.

On to `Cn1cc(CNC(=O)C2CSc3ccccc3O2)cn1` (centres undefined), for which the IC50 in experiment [1] is 218 µM; in experiment [2], greater than 501 µM.

Take `CC(C)Oc1cccc(C(O)CNC(=O)NCc2cccs2)c1` (centres undefined): the IC50 in experiment [1] is greater than 50.1 µM; in experiment [2] it was 30.8 µM.

For the compound `COc1ccc(S(=O)(=O)N2CC(NCC3CC3)C2)cc1`, the IC50 was 209 µM in experiment [1] and greater than 501 µM in experiment [2].

With `CC(C)N(C)S(=O)(=O)N1CCc2sccc2C1C` (centres undefined), the values for the IC50 in experiment [1] and in experiment [2] were 150 µM and 207 µM, respectively.

For the compound `CCOc1ccc2c(c1)C=C(C(=O)NC)CO2`, the values for the IC50 in experiment [1] and in experiment [2] were 174 µM and 230 µM, respectively.

With `CC(=O)NCC1CNCCO1` (centres undefined), the IC50 in experiment [1] and in experiment [2] was greater than 501 µM in each case.

With `CC(N)c1nc(-c2ccc(Br)cc2)c[nH]1` (centres undefined), the results for the IC50 in experiment [1] and in experiment [2] were 99.7 µM and 242 µM, respectively.

Take `CCCc1nnc(NC2CCN(C(=O)OCC)CC2)o1`: the IC50 in experiment [1] is 180 µM; in experiment [2], 72 µM.

In the case of `CCC(N)C(=O)N1CCN(c2ccc(F)cc2Cl)CC1` (centres undefined), the IC50 in experiment [1] was 322 µM; in experiment [2], 266 µM.

On to `CN1C(=O)c2ccc(C(=O)NC3CC3)cc2C1=O`, for which the IC50 in experiment [1] and in experiment [2] was greater than 501 µM in each case.

`CC(O)CN1C(=O)C=CC1=O` (centres undefined): the figures for the IC50 in experiment [1] and in experiment [2] were 135 µM and 286 µM, respectively.

With `OCC(O)CSCCc1ccccc1Cl` (centres undefined), the figures for the IC50 in experiment [1] and in experiment [2] were 136 µM and 473 µM, respectively.

Take `CC(C)(C)OCCOc1ccc(OCCO)cc1`: the IC50 in experiment [1] is 101 µM; in experiment [2], 161 µM.

`NCCNS(=O)(=O)c1cccc(I)c1`: the IC50 was 326 µM in experiment [1] and greater than 501 µM in experiment [2].

`O=C(c1cc(Cl)c[nH]1)N1CCOC(c2cccs2)C1` (centres undefined): the results for the IC50 in experiment [1] and in experiment [2] were 50.5 µM and greater than 501 µM, respectively.

Take `Cc1ccc(NC(=O)Cn2ccnc2)cc1`: the results for the IC50 in experiment [1] and in experiment [2] were 159 µM and 171 µM, respectively.

For `Cc1cc(Br)oc1C(=O)Nc1ncccc1O`, the IC50 in experiment [1] was 322 µM; in experiment [2] it was 157 µM.

For the compound `CCC(c1nnc(SCC(=O)NCC(C)C)o1)N(C)C` (centres undefined), the IC50 in experiment [1] was 217 µM; in experiment [2], 192 µM.

In the case of `CC(C)(C)OC(=O)N1CC2(CCC(CN)O2)C1` (centres undefined), the values for the IC50 in experiment [1] and in experiment [2] were 231 µM and 263 µM, respectively.

Regarding `CN(Cc1cccnc1)C(=O)c1cc(Cl)c[nH]1`, the IC50 in experiment [1] was 281 µM; in experiment [2], 333 µM.

As to `CC(C)(C)c1nc(CN2CCC(c3ccnn3CCO)CC2)no1`, the IC50 in experiment [1] and in experiment [2] was greater than 50.1 µM in each case.

For the compound `CN1CCC(NC(=O)c2coc(Br)c2)CC1=O` (centres undefined), the IC50 in experiment [1] and in experiment [2] was greater than 501 µM throughout.

For `CC(C)n1nnnc1SCCS(=O)(=O)c1ccccc1`, the figures for the IC50 in experiment [1] and in experiment [2] were 82.8 µM and 164 µM, respectively.

For `Cc1cnn(CC2CCCN2Cc2ncc(-c3ccc(F)cc3)o2)c1` (centres undefined), the IC50 in experiment [1] is 27 µM; in experiment [2], greater than 50.1 µM.

Regarding `Cn1c(CO)nnc1SCC=Cc1ccccc1`, the IC50 in experiment [1] was 240 µM; in experiment [2], 289 µM.

Consider `Cc1nc(Cn2cc(S(=O)(=O)N(C)C)ccc2=O)cs1`, for which the figures for the IC50 in experiment [1] and in experiment [2] were 326 µM and greater than 501 µM, respectively.

For the compound `CCCOc1cc(CNC(=O)c2nccn2C)ccn1`, the IC50 was 248 µM in experiment [1] and 201 µM in experiment [2].

For `CC(C)(C)OC(=O)N1CCCC1CN` (centres undefined), the IC50 in experiment [1] was 368 µM; in experiment [2] it was 207 µM.

For `CN(C)S(=O)(=O)c1ccc(F)c(NC(=O)COCC2CC2)c1`, the IC50 in experiment [1] was 10.3 µM; in experiment [2] it was greater than 50.1 µM.

`CN(C1CCCC1)S(=O)(=O)NCCNc1ccccn1`: the IC50 in experiment [1] was 94.1 µM; in experiment [2], 189 µM.

Consider `O=C(Nc1nncs1)c1ccccn1`, for which the IC50 in experiment [1] was 36.5 µM; in experiment [2], 139 µM.

Regarding `CCC(N)c1cnn(CC)c1` (centres undefined), the IC50 in experiment [1] and in experiment [2] was greater than 501 µM each time.

For `COC(=O)c1ccc(-c2noc(CN(CCO)Cc3cccs3)n2)cc1`, the IC50 in experiment [1] was 47.5 µM; in experiment [2] it was greater than 50.1 µM.

With `CNc1cc(C)nc(NCc2cc(C)cc3c(C)c(C)[nH]c23)n1`, the figures for the IC50 in experiment [1] and in experiment [2] were 23.6 µM and 35.8 µM, respectively.

With `Cc1nnc(SCc2ccc(Cl)s2)n1CC(N)=O`, the IC50 in experiment [1] and in experiment [2] was greater than 501 µM throughout.

`CCOc1ccc(C(=O)CCN(C)C)cc1`: the IC50 in experiment [1] is 160 µM; in experiment [2], 191 µM.

Turning to `CN(CCn1cnnc1)c1ccc2ccc(F)cc2n1`, the IC50 is 212 µM in experiment [1] and 259 µM in experiment [2].

With `CCCc1nc(N2CCCCC2)c2c(n1)c(C)nn2CC`, the IC50 in experiment [1] is 38.4 µM; in experiment [2] it was 39.3 µM.

Regarding `Cc1ccc(N2N=C(C(N)=O)S(=O)(=O)c3cccnc32)cc1`, the results for the IC50 in experiment [1] and in experiment [2] were 14.5 µM and 36 µM, respectively.

`CCCOc1ccc(NS(=O)(=O)N(C)C)cc1Cl`: the IC50 in experiment [1] is 196 µM; in experiment [2], greater than 501 µM.

With `N[C@H]1CN(S(=O)(=O)c2cccc(Cl)c2)C[C@@H]1C1CC1`, the values for the IC50 in experiment [1] and in experiment [2] were 363 µM and greater than 501 µM, respectively.

Take `CC(C)C(=O)N1CCC(C(=O)c2ccc(O)cc2)CC1`: the figures for the IC50 in experiment [1] and in experiment [2] were 5.6 µM and greater than 501 µM, respectively.

As for `CC(C)c1ccc(NC(=O)CN)cc1`, the IC50 in experiment [1] is 245 µM; in experiment [2] it was 204 µM.

Turning to `O=C(CCN1CCN(c2ccccn2)CC1)NC1CC1`, the IC50 in experiment [1] and in experiment [2] was greater than 501 µM throughout.

Turning to `CCOCC(=O)NC(C)Cc1ccccc1Br` (centres undefined), the figures for the IC50 in experiment [1] and in experiment [2] were 0.928 µM and 0.742 µM, respectively.

For the compound `CCOc1cccc(CNc2nc(N(C)C)n[nH]2)c1`, the IC50 was 57.4 µM in experiment [1] and 34.2 µM in experiment [2].

As to `CCCn1nc(C(=O)NCc2csc(Br)c2)ccc1=O`, the IC50 in experiment [1] was 222 µM; in experiment [2], 154 µM.

`CCN1CCN(Cc2cc(C(C)=O)ccc2OC)CC1`: the IC50 in experiment [1] was 367 µM; in experiment [2], greater than 501 µM.

As to `c1csc(CSCCNC2=NCCN2)c1`, the IC50 in experiment [1] and in experiment [2] was greater than 501 µM each time.

With `CCOc1ccc(CSc2nnc[nH]2)cc1`, the results for the IC50 in experiment [1] and in experiment [2] were 218 µM and 198 µM, respectively.

As for `Cc1cc(C(=O)N2CCN(Cc3ccsc3)CC2)[nH]n1`, the values for the IC50 in experiment [1] and in experiment [2] were 90.5 µM and 156 µM, respectively.

Regarding `NC(=O)c1cc(S(=O)(=O)NCCc2ccccc2)cs1`, the IC50 was 247 µM in experiment [1] and greater than 501 µM in experiment [2].

On to `O=C(c1cccnc1)N(CCO)Cc1cc(Br)ccc1F`, for which the IC50 in experiment [1] and in experiment [2] was greater than 50.1 µM throughout.

Turning to `Cc1cc(Cl)ccc1NC(=O)CN1CCN(C)CC1`, the IC50 in experiment [1] and in experiment [2] was greater than 501 µM in each case.

As to `OCCOCCNCc1ccc(-c2ccc(F)cc2)o1`, the IC50 in experiment [1] was 288 µM; in experiment [2] it was 127 µM.

With `O=C(NCc1nnc2n1CCCCC2)N(Cc1ccncc1)C1CC1`, the IC50 in experiment [1] and in experiment [2] was greater than 50.1 µM throughout.

Consider `COc1ccc(CN2C[C@H]3CN(C(=O)c4ccno4)CCN3C2=O)cc1`, for which the IC50 in experiment [1] and in experiment [2] was greater than 50.1 µM each time.

With `NCc1nc(-c2ccc(F)cc2)c[nH]1`, the values for the IC50 in experiment [1] and in experiment [2] were 222 µM and greater than 501 µM, respectively.

In the case of `c1ccc(Cc2cccc(C3CCCN3C3CCOCC3)n2)cc1` (centres undefined), the values for the IC50 in experiment [1] and in experiment [2] were 13.2 µM and greater than 50.1 µM, respectively.

As to `O=C(CO)N1CCCC(CCc2ccccc2F)C1` (centres undefined), the IC50 in experiment [1] was 196 µM; in experiment [2], 142 µM.
